Columns and labels:
[1] = tested on: Axl phosphorylation in transiently transfected HEK293T cells; assay: Cellular Axl phosphorylation assay; format: cell-based; details: Homo sapiens, HEK-293T; HEK293T cells transfected with Axl, 1 hour compound treatment, Phospho-Axl vs Total-Axl
From the text: Cell AXL Inhibition Assay Principle
The assay is based on the measurement of the relative amounts of Total-Axl and Phosphorylated-Axl in whole cell lysates of transiently transfected HEK293T cells. This assay is based on application of the Mesoscale western blot and subsequent electro-chemiluminescence detection. Overexpression of Axl-RTK (Receptor tyrosine kinase) by transfection leads to an increase in Axl-trans-autophosphorylation events. Upon compound treatment, the correlation of the measured values of Phosphorylated-Axl and Total Axl indicate the potential of the tested compound to inhibit Axl-phosphorylation at the given compound concentration.
Cell AXL Inhibition Assay Protocol
HEK293T cells (2.5×10^4/well) were plated in a 96 well plate and cells were transfected with pcDNA_DEST_40 Axl or pcDNA_DEST_40 by Superfact reagent (Qiagen. Co. Ltd.). After overnight, the transfection reagent of each well was removed from cells and replaced by fresh prewarmed medium. On the following day, cells were treated with the respective test compound which was diluted by the same method, as in the Axl binding assay using DMSO, for 1 hour
After incubation with the test compounds, cells in the well of the plate were lysed using Tris lysis buffer. The lysate was transferred to two plates (total-Axl and phosphor-Axl) Mesoscale high bind plates and incubated for two hours at room temperature. Afterwards the lysates were removed from the plates and the plates were blocked using Blocking buffer. Subsequently Total-Axl antibody (H-124, Santa Cruz) was transferred to one Mesoscale high bind plate, and Phospho-Axl antibody (AF2228, R&D) to the other plate. After 1 h incubation, Sulpho-Tag antibody (goat anti-rabbit, Mesoscale) was added and again incubated for 1 hour. For the measurement, 2×MSD read buffer was added to each well and the plates were analyzed with a Mesoscale Sector Imager 2400. IC50 (half the maximal inhibitory concentration) was determined relative to between the vehicle (DMSO) control group and minimum control group as transfection of the control vector (pcDNA_DEST_40).
The results after this assay are shown in table 3 for selected compounds.

TYRO3 = target: T1, TYRO3 (Homo sapiens, UniProt Q06418); assay: LanthaScreen Eu kinase binding assay, TYRO3; details: Tracer 236
T1 construct: purchased Life Technologies
T1 sequence (Q06418 41-890): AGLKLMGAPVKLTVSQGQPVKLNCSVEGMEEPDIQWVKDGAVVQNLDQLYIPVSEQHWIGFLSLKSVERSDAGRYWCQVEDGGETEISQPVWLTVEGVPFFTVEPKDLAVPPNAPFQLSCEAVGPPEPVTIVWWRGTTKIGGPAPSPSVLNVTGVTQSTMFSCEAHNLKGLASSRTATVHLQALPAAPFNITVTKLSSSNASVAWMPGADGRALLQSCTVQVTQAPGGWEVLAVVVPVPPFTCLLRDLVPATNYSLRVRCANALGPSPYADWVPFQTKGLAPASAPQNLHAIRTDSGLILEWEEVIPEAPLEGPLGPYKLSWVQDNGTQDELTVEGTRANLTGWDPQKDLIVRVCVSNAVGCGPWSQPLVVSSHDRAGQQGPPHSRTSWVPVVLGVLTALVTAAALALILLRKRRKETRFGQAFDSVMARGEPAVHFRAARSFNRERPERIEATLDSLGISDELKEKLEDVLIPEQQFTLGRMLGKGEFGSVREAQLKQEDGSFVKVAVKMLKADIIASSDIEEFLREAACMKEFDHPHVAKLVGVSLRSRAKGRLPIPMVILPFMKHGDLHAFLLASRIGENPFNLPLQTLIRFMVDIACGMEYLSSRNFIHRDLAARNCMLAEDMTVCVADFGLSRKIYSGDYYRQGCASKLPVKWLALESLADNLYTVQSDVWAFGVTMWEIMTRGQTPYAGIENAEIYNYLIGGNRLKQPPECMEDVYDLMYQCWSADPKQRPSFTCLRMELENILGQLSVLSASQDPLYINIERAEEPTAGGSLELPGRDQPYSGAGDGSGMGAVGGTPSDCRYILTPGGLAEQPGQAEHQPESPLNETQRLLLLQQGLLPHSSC

Mer = target: T2, Mer (Homo sapiens, UniProt Q12866); assay: LanthaScreen Eu kinase binding assay, Mer; details: Tracer 236
T2 construct: purchased Life Technologies
T2 sequence (Q12866 21-999): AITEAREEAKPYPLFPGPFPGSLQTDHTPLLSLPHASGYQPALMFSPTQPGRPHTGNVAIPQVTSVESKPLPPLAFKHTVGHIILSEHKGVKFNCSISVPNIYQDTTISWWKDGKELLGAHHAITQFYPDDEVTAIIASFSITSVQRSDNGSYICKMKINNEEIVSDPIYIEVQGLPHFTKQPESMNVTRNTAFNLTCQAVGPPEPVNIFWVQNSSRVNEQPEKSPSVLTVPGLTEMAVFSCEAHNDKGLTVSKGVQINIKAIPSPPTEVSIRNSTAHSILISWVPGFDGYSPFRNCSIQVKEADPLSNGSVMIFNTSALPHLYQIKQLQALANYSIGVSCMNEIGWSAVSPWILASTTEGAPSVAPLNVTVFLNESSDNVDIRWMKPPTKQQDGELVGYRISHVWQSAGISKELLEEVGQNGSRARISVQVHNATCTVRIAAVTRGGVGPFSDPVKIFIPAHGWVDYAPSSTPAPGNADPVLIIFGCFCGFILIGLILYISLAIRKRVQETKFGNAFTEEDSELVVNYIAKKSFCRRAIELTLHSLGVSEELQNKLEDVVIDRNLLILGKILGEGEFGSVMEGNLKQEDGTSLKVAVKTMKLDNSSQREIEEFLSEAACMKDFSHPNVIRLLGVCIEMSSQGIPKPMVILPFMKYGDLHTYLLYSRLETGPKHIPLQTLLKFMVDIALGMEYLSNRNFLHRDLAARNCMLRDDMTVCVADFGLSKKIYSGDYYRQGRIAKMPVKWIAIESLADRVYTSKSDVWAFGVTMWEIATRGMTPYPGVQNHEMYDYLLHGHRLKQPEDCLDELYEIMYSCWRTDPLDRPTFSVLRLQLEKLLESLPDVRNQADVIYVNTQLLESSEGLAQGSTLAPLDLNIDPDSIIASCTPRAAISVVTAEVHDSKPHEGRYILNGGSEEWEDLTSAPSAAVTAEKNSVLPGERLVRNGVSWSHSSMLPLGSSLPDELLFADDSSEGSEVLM

Met = target: T3, Met (Homo sapiens, UniProt P08581); assay: LanthaScreen Eu kinase binding assay, Met; details: Tracer 236, read-out: cMet kinase binding activity (Kd)
T3 construct: purchased Life Technologies
T3 sequence (P08581 25-1390): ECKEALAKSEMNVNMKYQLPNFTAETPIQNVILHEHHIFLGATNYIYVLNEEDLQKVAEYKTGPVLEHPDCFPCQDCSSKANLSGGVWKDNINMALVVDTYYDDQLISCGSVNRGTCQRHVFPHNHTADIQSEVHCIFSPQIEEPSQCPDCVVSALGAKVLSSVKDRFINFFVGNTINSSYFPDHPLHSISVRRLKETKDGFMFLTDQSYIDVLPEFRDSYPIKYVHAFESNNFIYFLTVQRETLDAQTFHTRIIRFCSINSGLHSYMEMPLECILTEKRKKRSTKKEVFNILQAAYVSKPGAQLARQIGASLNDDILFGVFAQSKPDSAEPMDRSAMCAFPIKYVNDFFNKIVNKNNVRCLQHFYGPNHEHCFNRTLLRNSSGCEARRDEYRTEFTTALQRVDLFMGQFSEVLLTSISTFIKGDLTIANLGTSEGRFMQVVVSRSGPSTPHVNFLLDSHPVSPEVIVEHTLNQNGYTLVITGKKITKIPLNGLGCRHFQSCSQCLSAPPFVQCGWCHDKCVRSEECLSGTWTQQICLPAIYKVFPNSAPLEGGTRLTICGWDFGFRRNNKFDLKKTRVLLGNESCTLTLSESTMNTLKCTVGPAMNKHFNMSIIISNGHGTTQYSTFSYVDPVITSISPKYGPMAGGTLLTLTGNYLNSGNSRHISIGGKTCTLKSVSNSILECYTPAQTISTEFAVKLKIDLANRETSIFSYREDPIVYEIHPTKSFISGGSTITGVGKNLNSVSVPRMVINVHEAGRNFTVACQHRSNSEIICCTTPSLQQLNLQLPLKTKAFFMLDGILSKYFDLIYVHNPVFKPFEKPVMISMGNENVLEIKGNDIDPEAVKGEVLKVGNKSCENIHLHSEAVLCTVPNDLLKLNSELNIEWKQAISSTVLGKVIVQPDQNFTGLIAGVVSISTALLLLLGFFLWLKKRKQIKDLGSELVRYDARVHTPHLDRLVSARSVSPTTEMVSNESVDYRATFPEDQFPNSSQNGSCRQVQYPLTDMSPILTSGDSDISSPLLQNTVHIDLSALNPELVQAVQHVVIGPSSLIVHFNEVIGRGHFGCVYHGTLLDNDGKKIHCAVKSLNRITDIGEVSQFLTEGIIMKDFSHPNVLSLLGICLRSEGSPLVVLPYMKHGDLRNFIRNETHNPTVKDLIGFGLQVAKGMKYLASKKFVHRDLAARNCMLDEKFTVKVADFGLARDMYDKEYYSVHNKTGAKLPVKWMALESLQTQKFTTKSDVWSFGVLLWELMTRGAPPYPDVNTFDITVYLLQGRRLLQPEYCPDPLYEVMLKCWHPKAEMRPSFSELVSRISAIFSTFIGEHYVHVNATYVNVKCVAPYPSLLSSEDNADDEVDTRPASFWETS

Axl = target: T4, Axl (Homo sapiens, UniProt P30530); assay: LanthaScreen Eu kinase binding assay, Axl; details: Tracer 236
T4 construct: purchased Life Technologies
T4 sequence (P30530 26-894): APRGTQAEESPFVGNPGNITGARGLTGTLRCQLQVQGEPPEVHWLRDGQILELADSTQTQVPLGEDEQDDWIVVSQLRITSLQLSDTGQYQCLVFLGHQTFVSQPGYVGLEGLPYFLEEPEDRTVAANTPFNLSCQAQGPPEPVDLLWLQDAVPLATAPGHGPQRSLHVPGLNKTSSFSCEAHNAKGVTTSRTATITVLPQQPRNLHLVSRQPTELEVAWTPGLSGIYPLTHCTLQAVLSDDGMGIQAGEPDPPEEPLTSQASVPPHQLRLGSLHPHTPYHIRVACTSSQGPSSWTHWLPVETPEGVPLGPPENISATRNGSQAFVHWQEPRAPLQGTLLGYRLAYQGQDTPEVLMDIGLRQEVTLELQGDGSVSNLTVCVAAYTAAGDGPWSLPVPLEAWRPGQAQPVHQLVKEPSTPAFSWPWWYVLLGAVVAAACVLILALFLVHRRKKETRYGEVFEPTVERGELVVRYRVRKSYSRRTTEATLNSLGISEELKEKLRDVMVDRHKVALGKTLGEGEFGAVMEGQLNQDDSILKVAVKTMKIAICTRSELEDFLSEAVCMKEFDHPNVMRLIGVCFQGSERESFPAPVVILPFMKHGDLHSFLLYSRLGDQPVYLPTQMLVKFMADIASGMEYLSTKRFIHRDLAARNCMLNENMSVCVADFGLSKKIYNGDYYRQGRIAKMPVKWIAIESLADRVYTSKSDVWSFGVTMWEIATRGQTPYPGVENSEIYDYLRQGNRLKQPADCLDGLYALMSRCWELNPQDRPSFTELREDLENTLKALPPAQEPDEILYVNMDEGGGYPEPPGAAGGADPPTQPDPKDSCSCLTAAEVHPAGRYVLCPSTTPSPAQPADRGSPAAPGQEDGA

C=C(C)c1ccncc1-n1cc(OCC)c(C(=O)Nc2ccc(Oc3ccnc4cc(OC)c(OC)cc34)cn2)n1 [Compound 202]
< 100 nM: IC50 [1] | Kd (TYRO3) | Kd (Mer) | Kd (Met)

COc1cc2nccc(Oc3ccc(NC(=O)c4nn(-c5ccc(F)c(C(C)=O)c5)cc4OCC(F)(F)F)nc3)c2cc1OC [Compound 280]
< 100 nM: Kd (TYRO3) | Kd (Axl) | Kd (Mer) | Kd (Met)

From patent US10934274B2, “Quinoline derivatives as TAM RTK inhibitors” (Qurient Co., Ltd., priority 2015, dated 2021)
